Measurements published in PubChem BioAssay AID2060600 (Molecular Pharmacology Branch, DTP, NCI, 2025).

System: 996289-038-R-J1-PDC complex spheroid viability
Test: Anticancer human tumor 996289-038-R-J1-PDC patient-derived colon adenocarcinoma cell line growth inhibition [CLK]
Conditions: for IC50: curve of first compound; for viability, T/C: stronger effect = lower value
In short: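 Multi-cell-type spheroids combined patient-derived tumor cells with HUVEC endothelial cells and human mesenchymal stem cells. Paired agents were dosed in half-log steps down from about clinical Cmax, or from 10 microM where Cmax was unknown.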

[1] = second compound 0.0316 µM, first compound 0.00949 µM
[2] = second compound 0.0316 µM, first compound 0.03 µM
[3] = second compound 0.0316 µM, first compound 0.0949 µM
[4] = second compound 0.0316 µM, first compound 0.3 µM
[5] = second compound 0.1 µM, first compound 0.00949 µM
[6] = second compound 0.1 µM, first compound 0.03 µM
[7] = second compound 0.1 µM, first compound 0.0949 µM
[8] = second compound 0.1 µM, first compound 0.3 µM
[9] = second compound 0.316 µM, first compound 0.00949 µM
[10] = second compound 0.316 µM, first compound 0.03 µM
[11] = second compound 0.316 µM, first compound 0.0949 µM
[12] = second compound 0.316 µM, first compound 0.3 µM
[13] = second compound 1 µM, first compound 0.00949 µM
[14] = second compound 1 µM, first compound 0.03 µM
[15] = second compound 1 µM, first compound 0.0949 µM
[16] = second compound 1 µM, first compound 0.3 µM
[17] = second compound 3.16 µM, first compound 0.00949 µM
[18] = second compound 3.16 µM, first compound 0.03 µM
[19] = second compound 3.16 µM, first compound 0.0949 µM
[20] = second compound 3.16 µM, first compound 0.3 µM
[21] = second compound 10 µM, first compound 0.00949 µM
[22] = second compound 10 µM, first compound 0.03 µM
[23] = second compound 10 µM, first compound 0.0949 µM
[24] = second compound 10 µM, first compound 0.3 µM
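Further: spheroids exposed to the agents for 7 days before readout.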

C=CC(=O)Nc1cc(Nc2nccc(-c3cn(C)c4ccccc34)n2)c(OC)cc1N(C)CCN(C)C + CNC(=O)c1ccc(Nc2nc(OC3CCCC3)c3c(-c4ccc5nc(C)oc5c4)c[nH]c3n2)c(OC)c1
IC50 (second compound 0.0316 µM): > 300 nM
IC50 (second compound 0.1 µM): > 300 nM
IC50 (second compound 0.316 µM): > 300 nM
IC50 (second compound 1 µM): 137 nM
IC50 (second compound 3.16 µM): 91.8 nM
IC50 (second compound 10 µM): 56.9 nM
viability, T/C (second compound 0.0316 µM, first compound 0.000949 µM): 118%
viability, T/C (second compound 0.0316 µM, first compound 0.003 µM): 123%
viability, T/C [1]: 112%
viability, T/C [2]: 117%
viability, T/C [3]: 113%
viability, T/C [4]: 85.8%
viability, T/C (second compound 0.1 µM, first compound 0.000949 µM): 109%
viability, T/C (second compound 0.1 µM, first compound 0.003 µM): 124%
viability, T/C [5]: 106%
viability, T/C [6]: 109%
viability, T/C [7]: 110%
viability, T/C [8]: 77.4%
viability, T/C (second compound 0.316 µM, first compound 0.000949 µM): 74%
viability, T/C (second compound 0.316 µM, first compound 0.003 µM): 74.3%
viability, T/C [9]: 72.7%
viability, T/C [10]: 69.4%
viability, T/C [11]: 68.8%
viability, T/C [12]: 52.5%
viability, T/C (second compound 1 µM, first compound 0.000949 µM): 69.7%
viability, T/C (second compound 1 µM, first compound 0.003 µM): 67.5%
viability, T/C [13]: 62%
viability, T/C [14]: 61.6%
viability, T/C [15]: 53.2%
viability, T/C [16]: 43.1%
viability, T/C (second compound 3.16 µM, first compound 0.000949 µM): 64.2%
viability, T/C (second compound 3.16 µM, first compound 0.003 µM): 60.8%
viability, T/C [17]: 56.5%
viability, T/C [18]: 53%
viability, T/C [19]: 53.1%
viability, T/C [20]: 43.8%
viability, T/C (second compound 10 µM, first compound 0.000949 µM): 60.9%
viability, T/C (second compound 10 µM, first compound 0.003 µM): 55.9%
viability, T/C [21]: 55%
viability, T/C [22]: 54.7%
viability, T/C [23]: 47.4%
viability, T/C [24]: 38.2%

NC(=O)C(=Cn1cnc(-c2cc(C(F)(F)F)cc(C(F)(F)F)c2)n1)c1cncnc1 + CNC(=O)c1ccc(Nc2nc(OC3CCCC3)c3c(-c4ccc5nc(C)oc5c4)c[nH]c3n2)c(OC)c1
IC50 (second compound 0.0316 µM): 101 nM
IC50 (second compound 0.1 µM): 77 nM
IC50 (second compound 0.316 µM): 40.5 nM
IC50 (second compound 1 µM): 13 nM
IC50 (second compound 3.16 µM): < 9.49 nM
IC50 (second compound 10 µM): < 9.49 nM
viability, T/C [1]: 98.9%
viability, T/C [2]: 79.4%
viability, T/C [3]: 50.9%
viability, T/C [4]: 31.2%
viability, T/C (second compound 0.0316 µM, first compound 0.949 µM): 20%
viability, T/C (second compound 0.0316 µM, first compound 3 µM): 19.5%
viability, T/C [5]: 93.8%
viability, T/C [6]: 71.5%
viability, T/C [7]: 45.8%
viability, T/C [8]: 27.6%
viability, T/C (second compound 0.1 µM, first compound 0.949 µM): 17.7%
viability, T/C (second compound 0.1 µM, first compound 3 µM): 19%
viability, T/C [9]: 68.9%
viability, T/C [10]: 55.2%
viability, T/C [11]: 33.8%
viability, T/C [12]: 15%
viability, T/C (second compound 0.316 µM, first compound 0.949 µM): 13.4%
viability, T/C (second compound 0.316 µM, first compound 3 µM): 13.8%
viability, T/C [13]: 53.7%
viability, T/C [14]: 40.1%
viability, T/C [15]: 19.5%
viability, T/C [16]: 8.6%
viability, T/C (second compound 1 µM, first compound 0.949 µM): 8.98%
viability, T/C (second compound 1 µM, first compound 3 µM): 8.12%
viability, T/C [17]: 47.8%
viability, T/C [18]: 35.6%
viability, T/C [19]: 15.5%
viability, T/C [20]: 7.76%
viability, T/C (second compound 3.16 µM, first compound 0.949 µM): 6.08%
viability, T/C (second compound 3.16 µM, first compound 3 µM): 5.36%
viability, T/C [21]: 44.5%
viability, T/C [22]: 33.8%
viability, T/C [23]: 12.8%
viability, T/C [24]: 8.08%
viability, T/C (second compound 10 µM, first compound 0.949 µM): 5.49%
viability, T/C (second compound 10 µM, first compound 3 µM): 4.93%

Nc1ccccc1NC(=O)c1ccc(CNC(=O)OCc2cccnc2)cc1 + CNC(=O)c1ccc(Nc2nc(OC3CCCC3)c3c(-c4ccc5nc(C)oc5c4)c[nH]c3n2)c(OC)c1
IC50 (second compound 0.0316 µM): 7090 nM
IC50 (second compound 0.1 µM): 6910 nM
IC50 (second compound 0.316 µM): 4110 nM
IC50 (second compound 1 µM): 1700 nM
IC50 (second compound 3.16 µM): 1880 nM
IC50 (second compound 10 µM): 1840 nM
viability, T/C (second compound 0.0316 µM, first compound 0.0316 µM): 118%
viability, T/C (second compound 0.0316 µM, first compound 0.1 µM): 103%
viability, T/C (second compound 0.0316 µM, first compound 0.316 µM): 113%
viability, T/C (second compound 0.0316 µM, first compound 1 µM): 91.8%
viability, T/C (second compound 0.0316 µM, first compound 3.16 µM): 70.7%
viability, T/C (second compound 0.0316 µM, first compound 10 µM): 41.3%
viability, T/C (second compound 0.1 µM, first compound 0.0316 µM): 118%
viability, T/C (second compound 0.1 µM, first compound 0.1 µM): 110%
viability, T/C (second compound 0.1 µM, first compound 0.316 µM): 120%
viability, T/C (second compound 0.1 µM, first compound 1 µM): 97.9%
viability, T/C (second compound 0.1 µM, first compound 3.16 µM): 71%
viability, T/C (second compound 0.1 µM, first compound 10 µM): 40.2%
viability, T/C (second compound 0.316 µM, first compound 0.0316 µM): 85.5%
viability, T/C (second compound 0.316 µM, first compound 0.1 µM): 82.9%
viability, T/C (second compound 0.316 µM, first compound 0.316 µM): 74.3%
viability, T/C (second compound 0.316 µM, first compound 1 µM): 75.5%
viability, T/C (second compound 0.316 µM, first compound 3.16 µM): 54%
viability, T/C (second compound 0.316 µM, first compound 10 µM): 31.3%
viability, T/C (second compound 1 µM, first compound 0.0316 µM): 70.6%
viability, T/C (second compound 1 µM, first compound 0.1 µM): 70.7%
viability, T/C (second compound 1 µM, first compound 0.316 µM): 66.7%
viability, T/C (second compound 1 µM, first compound 1 µM): 59.9%
viability, T/C (second compound 1 µM, first compound 3.16 µM): 38.8%
viability, T/C (second compound 1 µM, first compound 10 µM): 12.5%
viability, T/C (second compound 3.16 µM, first compound 0.0316 µM): 63.8%
viability, T/C (second compound 3.16 µM, first compound 0.1 µM): 66.1%
viability, T/C (second compound 3.16 µM, first compound 0.316 µM): 63.8%
viability, T/C (second compound 3.16 µM, first compound 1 µM): 62.2%
viability, T/C (second compound 3.16 µM, first compound 3.16 µM): 40.1%
viability, T/C (second compound 3.16 µM, first compound 10 µM): 8.12%
viability, T/C (second compound 10 µM, first compound 0.0316 µM): 60.8%
viability, T/C (second compound 10 µM, first compound 0.1 µM): 63.3%
viability, T/C (second compound 10 µM, first compound 0.316 µM): 57.2%
viability, T/C (second compound 10 µM, first compound 1 µM): 62.6%
viability, T/C (second compound 10 µM, first compound 3.16 µM): 40.3%
viability, T/C (second compound 10 µM, first compound 10 µM): 7.43%
